Data published in patent US6610683B2, “Treatment of infectious disease using interleukin-1β-converting enzyme (ICE)/CED-3 family inhibitors” (IDUN Pharmaceuticals, Inc., priority 1996, dated 2003).
Residues, ends and D or L forms follow the SMILES beside them. *: point of attachment. Cbz = O=C(OCc1ccccc1)*; CH2F = FC*

How the values were obtained:
ICE = molecular target: T1, ICE (Homo sapiens, UniProt P29466); details: cited from earlier work
T1 sequence (P29466 120-297 limits assumed): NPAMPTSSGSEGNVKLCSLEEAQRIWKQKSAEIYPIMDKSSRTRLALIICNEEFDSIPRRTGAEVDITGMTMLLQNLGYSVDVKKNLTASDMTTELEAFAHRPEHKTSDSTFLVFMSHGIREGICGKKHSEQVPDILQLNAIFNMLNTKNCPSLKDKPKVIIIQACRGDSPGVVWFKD
T1 sequence (P29466 317-404 limits assumed): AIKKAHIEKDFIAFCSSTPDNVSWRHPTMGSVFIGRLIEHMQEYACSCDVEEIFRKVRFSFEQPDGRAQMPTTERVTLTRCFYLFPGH

mammary epithelial cells = details: absence of extracellular matrix; cited from earlier work
granulocytes [1] = test: Respiratory burst in isolated neutrophils measured by chemiluminescence (opsonized zymosan); assay type: cell-based; details: FIG. 7
Experimental: Respiratory burst in isolated neutrophils measured by Chemiluminescence
Whole blood anticoagulated with Acid Citrate Dextrose (ACD) with a ratio of 1:5 ACD to blood was collected (150 ml).
Neutrophils were isolated as described above.
Opsonized zymosan was prepared by suspending 125 mg zymosan particles in 25 ml pooled human serum (5 mg/ml) and incubating them for 20 minutes at 37° C. Centrifuge the suspension and resuspend the particles in 7 ml of PBS (18 mg/ml) and stored on ice until use (vortex prior to pipetting).
50 ml of a 250 μM solution of Lucigenin (MW 510.5) was prepared by dissolving 6.4 mg of the solid in 50 ml of PBS-G (+Ca, Mg). 10 μl of PBS-G (+Ca, Mg) to the wells in a white 96 well plate.
50 μl of the 250 μM Lucigenin solution was added to the wells in a white 96 well plate.
Cell preparations were obatined from cell culture (concentration at time zero=5.0×10^6 cells/ml) with PBS-G (+Ca, Mg). 20 μl of the neutrophil suspension was suspended to the appropriate wells and the plate was incubated the plate at 37° C. for three minutes. 10 μl of the opsonized zymosan was added to the wells.
The plate was read on the luminometer (Labsystems Luminoskan, Needham Heights, Mass.) for 14 min. at 37° C. in the kinetic mode and record results using the software DeltaSoft.
The ability to undergo the respiratory burst is another measure of granulocyte viability. The respiratory burst is a physiological response of granulocytes to foreign stimuli such as bacteria. In this example, the method for inducing the respiratory burst utilized opsonized bacterial zymosan. The respiratory burst was measured via chemiluminescence.

[2] = tested on: granulocytes in whole blood; test: Whole blood assay: survival of granulocytes by hypodiploid analysis via flow cytometry; assay type: cell-based; details: time zero
Experimental: The following reagents were used:
anti-CD32-FITC monoclonal antibody obtained from Pharmingen.
25 Lysing Solution (10×Stock: 89.9 g NH4Cl;
(DPBS without calcium or magnesium obtained from Irivine Scientific. 2% fetal bovine serum in DPBS stored at 4° C. 50 μg/ml propidium iodide in DPBS sterile filtered and stored at 4° C.)
200 μl blood sample/2.8 ml 1×lysis solution in a 15 ml polypropylene conical tube.
Cap and invert to mix. Leave at room temperature for 3-5 minutes.
Centrifuge in a table-top Sorvall at 1200 rpm for 5 minutes at 4° C.
Aspirate supernate. Resuspend pellet in 200 μl/sample 2% FBS/DPBS. Add 20 μl/sample anti-CD32-FITC. Incubate 30 minutes on ice in the dark.
Add 5 ml/sample DPBS. Centrifuge at 1000 rpm for 5 minutes at 4° C.
Aspirate supernate. Resuspend pellet in1 ml/sample 2% FBS/DPBS.
Add 3 ml/sample ice-cold 95% EtOH dropwise while vortexing gently.
Incubate samples on ice in the dark for 30 minutes.
Centrifuge at 1000 rpm for 5 minutes at 4° C.
Resuspend each sample in 50 μl 5 mg/ml RN'ase. Transfer sample to 900 μl/sample […] Propidium Iodide in 12×75 mm Falcon polystyrene tubes.
Incubate on ice for 30 minutes.
Analyze samples by flow cytometry (argon laser) for forward and side scatter and fluorescence.
Survival of granulocytes in whole blood was measured by hypodiploid analysis in a similar fashion to isolated granulocytes via flow cytometry. […]

T-lymphocyte cell line = details: cited from earlier work
motoneurons = details: in vitro and in vivo; cited from earlier work
granulocytes [3] = test: Granulocyte survival in culture, hypodiploid nuclei by propidium iodide flow cytometry; assay type: cell-based; details: at 48 hours; FIG. 6
Experimental: Whole blood anticoagulated with Acid Citrate Dextrose (ACD) with a ratio of 1:5 ACD to blood was collected (˜100 ml).
Using polypropylene plastic ware, neutrophils are isolated as follows:
30 ml of the whole blood is added to 50 ml polypropylene centrifuge tubes containing 15 ml of 6% Dextran (in Saline). The blood is allowed to sediment for approximately 1 hour at room temperature.
The turbid straw colored layer harvested from the top of the cylinders into 50 ml conical polypropylene tubes. The blood cells were pelleted by centrifugation at 240×g (Sorvall centrifuge at 1200 rpm) for 12 min. at 4° C. with the brake on low. […]
The supernatant was aspirated and the neutrophil pellet resuspended in 4.0 ml cold PBS (w/o Ca, Mg) on ice. 10 μl of the neutrophil cell suspension was diluted with 990 μl of Trypan blue (1:100) and cells counted using a hemacytometer. The cell number and viability were determined. […]
Neutrophils were resuspended in hypotonic fluorochrome solution at a density of 5×10^6 cells/ml. Propidium iodide fluorescence of individual nuclei was evaluated in FL2 and measured on a logarithmic scale while gating on physical parameters in forward and side scatter to exlude cell debris.
At least 10,000 events per sample were collected and the results were evaluated relative to a non-apoptotic neutrophil population. […]

[4] = after granulocyte culture for 72 hours

CC(=O)NC(Cc1ccc(O)cc1)C(=O)NC(C(=O)NC(C)C(=O)NC(CC(=O)O)C(=O)C=[N+]=[N-])C(C)C (stereo not drawn) [AC-Tyr-Val-Ala-Asp-COCHN2]
inhibition of the enzyme (ICE) (ICE): potent, competitive, irreversible inhibitor

CC(C)(C)OC(=O)N[C@@H](CC(=O)OCc1ccccc1)C(=O)CCl [Boc-D-(benzyl) chloromethylketone]
prevention of cell death of mammary epithelial cells (mammary epithelial cells): prevented

Cc1c(C(=O)N[C@H](C(=O)NC(CC(=O)O)C(=O)CF)C(C)C)n(C)c2ccccc12 (stereo partly drawn) [Example 43, N-[(1,3-dimethylindole-2-carbonyl)Valinyl]-3-amino-4-Oxo-5-fluoropentanoic Acid]
maintenance of the respiratory burst (granulocytes [1]; [4]): partially maintained
maintenance of the respiratory burst (granulocytes [1]; for 48 hours): substantially maintained

Cc1c(C(=O)N[C@H](C(=O)NC(CC(=O)O)C(=O)COC(=O)c2c(Cl)cccc2Cl)C(C)C)n(C)c2ccccc12 (stereo partly drawn) [Example 70, N-[N-(1,3-dimethyl-indole-2-carbonyl)-valinyl]-3-amino-5-(2,6-dichlorobenzoyl)oxy-4-oxo-pentanoic Acid]
maintenance of the respiratory burst (granulocytes [1]; [4]): partially maintained
maintenance of the respiratory burst (granulocytes [1]; for 48 hours): substantially maintained
Percentage of diploid granulocytes in whole blood [2]: 96%

CC(=O)N[C@@H](CC(=O)O)C(=O)N[C@@H](CCC(=O)O)C(=O)N[C@H](C(=O)N[C@H](C=O)CC(=O)O)C(C)C [acetyl-DEVD-aldehyde]
inhibition of anti-Fas induced apoptosis (T-lymphocyte cell line): inhibited

CC(=O)N[C@@H](Cc1ccc(O)cc1)C(=O)N[C@H](C(=O)N[C@@H](C)C(=O)N[C@H](C=O)CC(=O)O)C(C)C [acetyl-YVAD-aldehyde]
block of the death of motoneurons (motoneurons): blocked

CC(=O)N[C@@H](Cc1ccc(O)cc1)C(=O)N[C@H](C(=O)N[C@@H](C)C(=O)N[C@@H](CC(=O)O)C(=O)CCl)C(C)C [acetyl-YVAD-chloromethylketone]
block of the death of motoneurons (motoneurons): blocked

COC(=O)C[C@H](NC(=O)[C@H](C)NC(=O)[C@@H](NC(=O)OCc1ccccc1)C(C)C)C(=O)CF [zVADfmk] (Cbz-Val-Ala-Asp(OMe)-CH2F)
effect on improving granulocyte survival (granulocytes [3]): weak effect
maintenance of the respiratory burst (granulocytes [1]; opsonized zymosan, chemiluminescence): did not maintain the respiratory burst
